Reference: patent US20240425524A1, “SPIROTRICYCLE RIPK1 INHIBITORS AND METHODS OF USES THEREOF” (Merck Sharp & Dohme LLC, priority 2021, published 2024)

molecular target: RIPK1 (Homo sapiens (Human), UniProt Q13546); assay: RIPK1-ADP-Glo Enzymatic Assay; format: biochemical; conditions: recombinant GST-RIPK1 kinase domain (residues 1-327), 25 nM, ten-point titration, 30 minutes pre-incubation
Outline: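 GST-RIPK1 kinase domain (residues 1-327, Sf21-expressed; 25 nM final) was pre-incubated 30 min at ambient temperature with compound (10-point 1:3 series from 100000 nM, 1% DMSO) in HEPES pH 7.3 buffer with 20 mM MgCl2. The reaction was started with 900 μM ATP (addition solution) and 3 μM dephosphorylated MBP and ran 150 min. Read-out was ADP-Glo luminescence, with EC50 from a four-parameter fit.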

Chain of RIPK1 (Q13546 1-327): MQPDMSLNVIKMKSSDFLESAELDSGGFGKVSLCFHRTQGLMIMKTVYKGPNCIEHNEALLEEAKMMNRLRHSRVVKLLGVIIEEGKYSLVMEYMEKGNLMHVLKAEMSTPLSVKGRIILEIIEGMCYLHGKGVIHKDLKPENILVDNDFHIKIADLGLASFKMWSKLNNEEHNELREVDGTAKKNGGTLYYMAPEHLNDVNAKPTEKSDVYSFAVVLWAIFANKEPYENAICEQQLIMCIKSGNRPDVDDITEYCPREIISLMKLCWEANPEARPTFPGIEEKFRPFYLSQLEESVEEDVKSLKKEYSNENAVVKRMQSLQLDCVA

Row | EC50 [nM] | SMILES
1 | 25 | O=C1N2[C@H](c3cc(F)cc(F)c3)CCN2CC12CCN(c1cnc(-c3ccccc3Cl)cn1)CC2 [Example 2.16, (S)-1-(5-(2-chlorophenyl)pyrazin-2-y1)-7′-(3,5-difluorophenyl)dihydro-1′H,3′H,5′H-spiro[piperidine-4,2′-pyrazolo[1,2-a]pyrazol]-1′-one]
2 | 139 | COC(=O)N1CCC2(CC1)CN1CC[C@@H](c3cc(F)cc(F)c3)N1C2=O [Example 5.2, methyl (S)-7′-(3,5-difluorophenyl)-1′-oxodihydro-1′H,3′H,5′H-spiro [piperidine-4,2′-pyrazolo[1,2-a]pyrazole]-1-carboxylate]
3 | 176 | Cc1nccc(N2CCC3(CC2)CN2CC[C@@H](c4cc(F)cc(F)c4)N2C3=O)n1 [Example 1.45, (S)-7′-(3,5-difluorophenyl)-1-(2-methylpyrimidin-4-yl)dihydro-1′H,3′H,5′H-spiro[piperidine-4,2′-pyrazolo[1,2-a]pyrazol]-1′-one]
4 | 84 | O=C1N2[C@H](c3cc(F)cc(F)c3)CCN2CC12CCN(c1ncc(F)cn1)CC2 [Example 1.29, (S)-7′-(3,5-difluorophenyl)-1-(5-fluoropyrimidin-2-yl)dihydro-1′H,3′H,5′H-spiro[piperidine-4,2′-pyrazolo[1,2-a]pyrazol]-1′-one]
5 | 28 | COc1cc(N2CCC3(CC2)CN2CC[C@@H](c4cc(F)cc(F)c4)N2C3=O)ncn1 [Example 1.83, (S)-7′-(3,5-difluorophenyl)-1-(6-methoxypyrimidin-4-yl)dihydro-1′H,3′H,5′H-spiro[piperidine-4,2′-pyrazolo[1,2-a]pyrazol]-1′-one]
6 | 24 | O=C1N2[C@H](c3cc(F)cc(F)c3)CCN2CC12CCN(c1cccc(Cl)n1)CC2 [Example 1.5, (7′S)-1-(6-chloropyridin-2-yl)-7′-(3,5-difluorophenyl)dihydro-1′H,3′H,5′H-spiro[piperidine-4,2′-pyrazolo[1,2-a]pyrazol]-1′-one]
7 | 82 | O=C1N2[C@H](c3cc(F)cc(F)c3)CCN2CC12CCN(c1cncc(-n3cccn3)n1)CC2 [Example 1.70, (S)-1-(6-(1H-pyrazol-1-yl)pyrazin-2-yl)-7′-(3,5-difluorophenyl)dihydro-1′H,3′H,5′H-spiro[piperidine-4,2′-pyrazolo[1,2-a]pyrazol]-1′-one]
8 | 457 | O=C1N2[C@H](c3cc(F)cc(F)c3)CCN2CC12CCN(c1ccc(Cl)nn1)CC2 [Example 1.34, (S)-1-(6-chloropyridazin-3-yl)-7′-(3,5-difluorophenyl)dihydro-1′H,3′H,5′H-spiro[piperidine-4,2′-pyrazolo[1,2-a]pyrazol]-1′-one]
9 | 876 | Cc1ncc(Cl)nc1N1CCC2(CC1)CN1CC[C@@H](c3cc(F)cc(F)c3)N1C2=O [Example 1.43, (S)-1-(6-chloro-3-methylpyrazin-2-yl)-7′-(3,5-difluorophenyl)dihydro-1′H,3′H,5′H-spiro[piperidine-4,2′-pyrazolo[1,2-a]pyrazol]-1′-one]
10 | 34 | O=C1N2[C@H](c3cc(F)cc(F)c3)CCN2CC12CCN(c1nccn3nccc13)CC2 [Example 2.11, (S)-7′-(3,5-difluorophenyl)-1-(pyrazolo[1,5-a]pyrazin-4-y1)dihydro-l′H,3′H,5′H-spiro[piperidine-4,2′-pyrazolo[1,2-a]pyrazol]-1′-one]
11 | 18 | CC(C)Oc1cc(N2CCC3(CC2)CN2CC[C@@H](c4cc(F)cc(F)c4)N2C3=O)ncc1C#N [Example 1.59, (S)-6-(7′-(3,5-difluorophenyl)-1′-oxodihydro-1′H,3′H,5′H-spiro[piperidine-4,2′-pyrazolo[1,2-a]pyrazol]-1-yl)-4-isopropoxynicotinonitrile]
12 | 59 | O=C1N2[C@H](c3cc(F)cc(F)c3)CCN2CC12CCN(c1ccnc(C3CC3)n1)CC2 [Example 1.46, (S)-1-(2-cyclopropylpyrimidin-4-yl)-7′-(3,5-difluorophenyl)dihydro-1′H,3′H,5′H-spiro[piperidine-4,2′-pyrazolo[1,2-a]pyrazol]-1′-one]
13 | 83 | O=C1N2[C@H](c3cc(F)cc(F)c3)CCN2CC12CCN(c1cccc(C(F)(F)F)n1)CC2 [Example 1.63, (S)-7′-(3,5-difluorophenyl)-1-(6-(trifluoromethyl)pyridin-2-yl)dihydro-1′H,3′H,5′H-spiro[piperidine-4,2′-pyrazolo[1,2-a]pyrazol]-1′-one]
14 | 16 | O=C1N2[C@H](c3cc(F)cc(F)c3)CCN2CC12CCN(c1ccnc(C(F)F)n1)CC2 [Example 1.8, (7′S)-1-[2-(difluoromethyl)pyrimidin-4-yl]-7′-(3,5-difluorophenyl)dihydro-1′H,3′H,5′H-spiro[piperidine-4,2′-pyrazolo[1,2-a]pyrazol]-1′-one]
15 | 208 | CCc1nccc(N2CCC3(CC2)CN2CC[C@@H](c4cc(F)cc(F)c4)N2C3=O)n1 [Example 1.72, (S)-7′-(3,5-difluorophenyl)-1-(2-ethylpyrimidin-4-yl)dihydro-1′H,3′H,5′H-spiro[piperidine-4,2′-pyrazolo[1,2-a]pyrazol]-1′-one]
16 | 24 | COc1cc(N2CCC3(CC2)CN2CC[C@@H](c4cc(F)cc(F)c4)N2C3=O)ccn1 [Example 1.89, (S)-7′-(3,5-difluorophenyl)-1-(2-methoxypyridin-4-yl)dihydro-1′H,3′H,5′H-spiro[piperidine-4,2′-pyrazolo[1,2-a]pyrazol]-1′-one]
17 | 30 | N#Cc1cc(N2CCC3(CC2)CN2CC[C@@H](c4cc(F)cc(F)c4)N2C3=O)ncn1 [Example 1.74, (S)-6-(7′-(3,5-difluorophenyl)-1′-oxodihydro-1′H,3′H,5′H-spiro[piperidine-4,2′-pyrazolo[1,2-a]pyrazol]-1-yl)pyrimidine-4-carbonitrile]
18 | 38 | Cc1cc2c(N3CCC4(CC3)CN3CC[C@@H](c5cc(F)cc(F)c5)N3C4=O)ncnc2s1 [Example 1.67, (S)-7′-(3,5-difluorophenyl)-1-(6-methylthieno[2,3-d]pyrimidin-4-yl)dihydro-1′H,3′H,5′H-spiro[piperidine-4,2′-pyrazolo[1,2-a]pyrazol]-1′-one]
19 | 23 | O=C(c1cccc(F)c1F)N1CCC2(CC1)CN1CC[C@@H](c3cc(F)cc(F)c3)N1C2=O [Example 4.29, (S)-1-(2,3-difluorobenzoyl)-7′-(3,5-difluorophenyl) dihydro-1′H,3′H,5′H-spiro[piperidine-4,2′-pyrazolo[1,2-a]pyrazol]-l′-one]
20 | 46 | Cc1ccc(C(=O)N2CCC3(CC2)CN2CC[C@@H](c4cc(F)cc(F)c4)N2C3=O)cc1F [Example 4.22, (S)-7′-(3,5-difluorophenyl)-1-(3-fluoro-4-methylbenzoyl) dihydro-1′H,3′H,5′H-spiro[piperidine-4,2′-pyrazolo[1,2-a]pyrazol]-l′-one]
21 | 414 | O=C(c1ccncc1)N1CCC2(CC1)CN1CC[C@@H](c3cc(F)cc(F)c3)N1C2=O [Example 4.5, (S)-7′-(3,5-difluorophenyl)-1-isonicotinoyldihydro-1′H,3′H,5′H-spiro[piperidine-4,2′-pyrazolo[1,2-a]pyrazol]-l′-one]

Row | SMILES | EC50 [nM]
22 | O=C1N2[C@H](c3cc(F)cc(F)c3)CCN2CC12CCN(c1ncnc3scnc13)CC2 [Example 3.1] | 24
23 | O=C1N2[C@H](c3cc(F)cc(F)c3)CCN2CC12CCN(c1ccc(Cl)c3ccnn13)CC2 [Example 8.1, (S)-1-(4-chloropyrazolo[1,5-α]pyridin-7-yl)-7′-(3,5-difluorophenyl) dihydro-1′H,3′H,5′H-spiro [piperidine-4,2′-pyrazolo[1,2-α]pyrazol]-1′-one] | 7
24 | Cc1nc(N2CCC3(CC2)CN2CC[C@@H](c4cc(F)cc(F)c4)N2C3=O)ccc1Cl [Example 11.1, (S)-1-(5-chloro-6-methylpyridin-2-yl)-7′-(3,5-difluorophenyl) dihydro-1′H,3′H,5′H-spiro [piperidine-4,2′-pyrazolo[1,2-α]pyrazol]-1′-one] | 23
